US12187773B2, “Modified GIP peptide analogues” (Antag Therapeutics ApS, priority 2018, dated 2025)
Like-named read-outs stand apart in the source and are kept apart here. *1 amine or outer side, *2 acyl side, *3 side chain or, on linkers, in order; H or OH if unused. Where a SMILES comes first, the peptide text is derived from it. Side-chain parts run from the residue outwards. [ ]: non-standard residue; d: D form. The star is where a group is joined. C18 diacid = O=C(O)CCCCCCCCCCCCCCCCC(=O)*; C16 diacid = O=C(O)CCCCCCCCCCCCCCC(=O)*; γGlu = O=C(O)[C@H](CCC(=O)[*:2])N[*:1]; pGlu = O=C1CC[C@@H](C(=O)O)N1; AEEA = NCCOCCOCC(=O)O

How the values were obtained:
[1] = Elimination half-life (T1/2) estimated in Göttingen minipigs; assay type: in vivo
Description: 2-3 Göttingen minipigs were subcutaneously administered one of the GIP analogues of the present invention (1-10 nmol/kg, total volume 2-6 mL) and blood samples were collected before and up to 432 hours post subcutaneous administration.) from a central venous catheter. The catheter was flushed with saline and heparin between samples. Blood was collected into cold EDTA tubes, centrifuged and plasma was kept at −20° C. pending analyses.
Concentrations of the acylated GIP(3-30)NH2 or GIP(5-30)NH2 analogues in blood samples from Göttingen minipigs were analyzed by RIA. Analogues' immunoreactivity was determined using antiserum Ab95234, Ab95235, Ab95236, a polyclonal in-house antibody raised in rabbits specific for either the mid region of GIP(1-30)NH2 or amidated C-terminus of GIP(3-30)NH2.
In addition to the hormone analysis, blood concentrations of AT374, 380, 382-385, 392-393 were determined by LC/MS performed by Red Glead Discovery AB, Lund, Sweden. The plasma samples were precipitated by addition of 3 parts ethanol followed by thorough mixing. After centrifugation and dilution of the supernatant, the samples were analyzed by LC-MS/MS and compared with a 9-point calibration curve. The calibration curves were prepared in naïve plasma matrix from Göttingen minipigs.

glucagon receptor (GcgR) = biological target: T1, glucagon receptor (GcgR) (Homo sapiens, UniProt P47871); assay: cAMP assay - selectivity, antagonism at glucagon receptor; assay type: cell-based; conditions: Table 3A; COS-7 cells; agonist glucagon at 50-80% of maximal cAMP
T1 construct: expressed in transfected cells; host or cells: COS-7 (transient)
T1 sequence (P47871 26-477, species assumed): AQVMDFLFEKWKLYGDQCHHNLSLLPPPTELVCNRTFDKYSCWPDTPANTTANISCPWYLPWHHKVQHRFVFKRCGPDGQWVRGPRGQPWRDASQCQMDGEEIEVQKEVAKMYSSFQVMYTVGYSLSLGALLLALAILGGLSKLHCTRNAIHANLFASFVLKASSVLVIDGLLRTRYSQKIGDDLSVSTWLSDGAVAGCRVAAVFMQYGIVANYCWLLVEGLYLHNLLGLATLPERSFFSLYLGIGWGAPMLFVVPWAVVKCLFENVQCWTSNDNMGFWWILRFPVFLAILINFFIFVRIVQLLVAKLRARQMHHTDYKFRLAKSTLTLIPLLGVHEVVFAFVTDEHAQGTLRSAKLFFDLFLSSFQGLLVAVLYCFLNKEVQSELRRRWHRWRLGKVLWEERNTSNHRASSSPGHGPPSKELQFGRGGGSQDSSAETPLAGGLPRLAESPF
Description: (§1) Transient transfected COS-7 cells expressing the either of the GLP1 receptor (GLP1R), GLP2 receptor (GLP2R), glucagon receptor (GcgR) or secretin receptor (SCTR) were seeded in white 96-well plates with a density of 3.5*10^4/well. The day after, the cells were washed twice with Hepes buffered saline (HBS) buffer and incubated with HBS and 1 mM 3-isobutyl-1-methylxanthine (IBMX) for 30 min at 37° C. To test for agonistic properties, ligands were added and incubated for 30 min at 37° C. In order to test for antagonistic properties, the cells were preincubated with the antagonists for 10 min prior to the addition the natural agonist for the expressed receptor (GLP1 for GLP1R expressing cells, GLP2 for GLP2R expressing cells, glucagon for the GcgR and secretin for the SCTR) and subsequent incubated for 20 additional min. […] The HitHunter™ cAMP XS assay (DiscoveRx) was carried out according to the manufacturer's instructions.

GLP2 receptor (GLP2R) = biological target: T2, GLP2 receptor (GLP2R) (Homo sapiens, UniProt O95838); assay: cAMP assay - selectivity, antagonism at GLP2 receptor; assay type: cell-based; conditions: Table 3B; COS-7 cells; agonist GLP2
T2 construct: expressed in transfected cells; host or cells: COS-7 (transient)
T2 sequence (O95838 1-553): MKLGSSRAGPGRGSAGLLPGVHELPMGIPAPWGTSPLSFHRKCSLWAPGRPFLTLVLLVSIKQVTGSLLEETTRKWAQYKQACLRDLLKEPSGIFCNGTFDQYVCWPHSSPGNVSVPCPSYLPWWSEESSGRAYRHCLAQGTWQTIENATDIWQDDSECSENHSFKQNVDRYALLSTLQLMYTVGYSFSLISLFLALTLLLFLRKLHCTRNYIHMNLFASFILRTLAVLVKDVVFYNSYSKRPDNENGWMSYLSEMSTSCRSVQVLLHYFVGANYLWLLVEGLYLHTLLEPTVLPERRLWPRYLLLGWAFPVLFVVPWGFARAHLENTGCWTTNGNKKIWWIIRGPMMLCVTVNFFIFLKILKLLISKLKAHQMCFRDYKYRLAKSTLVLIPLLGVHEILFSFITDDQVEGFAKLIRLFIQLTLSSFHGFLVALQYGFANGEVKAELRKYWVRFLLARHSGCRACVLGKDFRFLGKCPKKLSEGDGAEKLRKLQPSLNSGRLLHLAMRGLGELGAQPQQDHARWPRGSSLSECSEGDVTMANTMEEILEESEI
Description: as §1

human GIP receptor = biological target: T3, human GIP receptor (Homo sapiens, UniProt P48546); assay: cAMP antagonism (CisBio cAMP Dynamic 2 HTRF assay); assay type: cell-based; set-up: pCMV-Script vector
T3 sequence (P48546 22-466): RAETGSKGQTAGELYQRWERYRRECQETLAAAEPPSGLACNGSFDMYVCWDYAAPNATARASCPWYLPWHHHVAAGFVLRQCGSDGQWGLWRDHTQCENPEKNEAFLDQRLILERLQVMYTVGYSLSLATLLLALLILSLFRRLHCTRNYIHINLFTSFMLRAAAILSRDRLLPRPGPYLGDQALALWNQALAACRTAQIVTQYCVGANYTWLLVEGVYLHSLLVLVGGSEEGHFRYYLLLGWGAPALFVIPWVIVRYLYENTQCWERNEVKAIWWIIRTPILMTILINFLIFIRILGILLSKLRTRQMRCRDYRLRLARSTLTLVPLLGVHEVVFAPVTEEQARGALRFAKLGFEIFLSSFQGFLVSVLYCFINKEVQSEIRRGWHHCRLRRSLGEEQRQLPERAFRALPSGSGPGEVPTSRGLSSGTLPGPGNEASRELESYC
Procedure, shortened: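 Four-parameter fits of cAMP dose-response gave pIC50. cAMP fall was quantified by HTRF competition, ratio 665/620 nm after 60 min at room temperature, against a cAMP standard curve.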

[2] = Göttingen, minipig, plasma, subcutaneous, Example 1, read-out: T1/2 (converted)
[3] = sc, Table 1B, species not given, unit h, LC/MS in Göttingen minipig plasma for these IDs, subcutaneous 1-10 nmol/kg, read-out: T½ (converted)
[4] = GIPR, Antagonism, nM, Table 3C, CisBio assay
[5] = Table 1C, CisBio, HEK-293 cells
[6] = cAMP antagonism, nM (IC50), Table 1C, CisBio, HEK-293 cells, agonist GIP1-42 at EC50

SMILES	half-life [1, 2] [h]	half-life [1, 3] [h]	Glucagon R, Antagonism, nM (glucagon receptor (GcgR))	GLP-2R, Antagonism (GLP2 receptor (GLP2R))	IC50 (human GIP receptor; [4]) [nM]	cAMP antagonism, % inhib (human GIP receptor; [5]) [%]	GIPR, Antagonism, % inhib (human GIP receptor; Table 3C, CisBio assay) [%]	IC50 (human GIP receptor; [6]) [nM]
CC[C@H](C)[C@H](NC(=O)[C@H](CO)NC(=O)[C@H](Cc1ccc(O)cc1)NC(=O)[C@H](CC(=O)O)NC(=O)[C@H](CO)NC(=O)[C@@H](NC(=O)[C@H](Cc1ccccc1)NC(=O)[C@@H](NC(=O)CNC(=O)[C@@H]1CCC(=O)N1)[C@@H](C)O)[C@@H](C)CC)C(=O)N[C@@H](C)C(=O)N[C@@H](CCSC)C(=O)N[C@@H](CC(=O)O)C(=O)N[C@@H](CCCNC(=N)N)C(=O)N[C@H](C(=O)N[C@@H](CCCCNC(=O)COCCOCCNC(=O)COCCOCCNC(=O)COCCOCCNC(=O)CC[C@H](NC(=O)CCCCCCCCCCCCCCCCC(=O)O)C(=O)O)C(=O)N[C@@H](CCC(N)=O)C(=O)N[C@@H](CCC(N)=O)C(=O)N[C@@H](CC(=O)O)C(=O)N[C@@H](Cc1ccccc1)C(=O)N[C@H](C(=O)N[C@@H](CC(N)=O)C(=O)N[C@@H](Cc1c[nH]c2ccccc12)C(=O)N[C@@H](CC(C)C)C(=O)N[C@@H](CC(C)C)C(=O)N[C@@H](C)C(=O)N[C@@H](CCC(N)=O)C(=O)N[C@@H](CCCNC(=N)N)C(N)=O)C(C)C)[C@@H](C)CC [AT382] ([pGlu]GTFISDYSIAMDRIK([AEEA-AEEA-AEEA-γGlu-C18 diacid])QQDFVNWLLAQR-NH2)	29	29	No antagonism	No antagonism	25.1	83	83	25.1
CC[C@H](C)[C@H](NC(=O)[C@H](CO)NC(=O)[C@H](Cc1ccc(O)cc1)NC(=O)[C@H](CC(=O)O)NC(=O)[C@H](CO)NC(=O)[C@@H](NC(=O)[C@H](Cc1ccccc1)NC(=O)[C@@H](NC(=O)CNC(=O)[C@@H](N)CO)[C@@H](C)O)[C@@H](C)CC)C(=O)N[C@@H](C)C(=O)N[C@@H](CCSC)C(=O)N[C@@H](CC(=O)O)C(=O)N[C@@H](CCCNC(=N)N)C(=O)N[C@H](C(=O)N[C@@H](CCCCNC(=O)COCCOCCNC(=O)COCCOCCNC(=O)COCCOCCNC(=O)CC[C@H](NC(=O)CCCCCCCCCCCCCCC(=O)O)C(=O)O)C(=O)N[C@@H](CCC(N)=O)C(=O)N[C@@H](CCC(N)=O)C(=O)N[C@@H](CC(=O)O)C(=O)N[C@@H](Cc1ccccc1)C(=O)N[C@H](C(=O)N[C@@H](CC(N)=O)C(=O)N[C@@H](Cc1c[nH]c2ccccc12)C(=O)N[C@@H](CC(C)C)C(=O)N[C@@H](CC(C)C)C(=O)N[C@@H](C)C(=O)N[C@@H](CCC(N)=O)C(=O)N[C@@H](CCCNC(=N)N)C(N)=O)C(C)C)[C@@H](C)CC [AT383] (H-SGTFISDYSIAMDRIK([AEEA-AEEA-AEEA-γGlu-C16 diacid])QQDFVNWLLAQR-NH2; N-terminus assumed)	–	12	No antagonism	No antagonism	12.6	89	89	12.6
CC[C@H](C)[C@H](NC(=O)[C@H](CO)NC(=O)[C@H](Cc1ccc(O)cc1)NC(=O)[C@H](CC(=O)O)NC(=O)[C@H](CO)NC(=O)[C@@H](NC(=O)[C@H](Cc1ccccc1)NC(=O)[C@@H](NC(=O)CNC(=O)[C@@H](N)CO)[C@@H](C)O)[C@@H](C)CC)C(=O)N[C@@H](C)C(=O)N[C@@H](CCSC)C(=O)N[C@@H](CC(=O)O)C(=O)N[C@@H](CCCNC(=N)N)C(=O)N[C@H](C(=O)N[C@@H](CCCCNC(=O)COCCOCCNC(=O)COCCOCCNC(=O)CC[C@H](NC(=O)CCCCCCCCCCCCCCCCC(=O)O)C(=O)O)C(=O)N[C@@H](CCC(N)=O)C(=O)N[C@@H](CCC(N)=O)C(=O)N[C@@H](CC(=O)O)C(=O)N[C@@H](Cc1ccccc1)C(=O)N[C@H](C(=O)N[C@@H](CC(N)=O)C(=O)N[C@@H](Cc1c[nH]c2ccccc12)C(=O)N[C@@H](CC(C)C)C(=O)N[C@@H](CC(C)C)C(=O)N[C@@H](C)C(=O)N[C@@H](CCC(N)=O)C(=O)N[C@@H](CCCNC(=N)N)C(N)=O)C(C)C)[C@@H](C)CC [AT384] (H-SGTFISDYSIAMDRIK([AEEA-AEEA-γGlu-C18 diacid])QQDFVNWLLAQR-NH2; N-terminus assumed)	36	36	No antagonism	No antagonism	54.1	97	97	54.1
CC[C@H](C)[C@H](NC(=O)[C@H](CO)NC(=O)[C@H](Cc1ccc(O)cc1)NC(=O)[C@H](CC(=O)O)NC(=O)[C@H](CO)NC(=O)[C@@H](NC(=O)[C@H](Cc1ccccc1)NC(=O)[C@@H](NC(=O)CNC(=O)[C@@H](N)CO)[C@@H](C)O)[C@@H](C)CC)C(=O)N[C@@H](C)C(=O)N[C@@H](CCSC)C(=O)N[C@@H](CC(=O)O)C(=O)N[C@@H](CCCNC(=N)N)C(=O)N[C@H](C(=O)N[C@@H](CCCCNC(=O)COCCOCCNC(=O)COCCOCCNC(=O)COCCOCCNC(=O)CC[C@H](NC(=O)CCCCCCCCCCCCCCCCC(=O)O)C(=O)O)C(=O)N[C@@H](CCC(N)=O)C(=O)N[C@@H](CCC(N)=O)C(=O)N[C@@H](CC(=O)O)C(=O)N[C@@H](Cc1ccccc1)C(=O)N[C@H](C(=O)N[C@@H](CC(N)=O)C(=O)N[C@@H](Cc1c[nH]c2ccccc12)C(=O)N[C@@H](CC(C)C)C(=O)N[C@@H](CC(C)C)C(=O)N[C@@H](C)C(=O)N[C@@H](CCC(N)=O)C(=O)N[C@@H](CCCNC(=N)N)C(N)=O)C(C)C)[C@@H](C)CC [AT385] (H-SGTFISDYSIAMDRIK([AEEA-AEEA-AEEA-γGlu-C18 diacid])QQDFVNWLLAQR-NH2; N-terminus assumed)	20	20	No antagonism	No antagonism	43	70	70	43
